How the values were obtained:
[1] = tested on: rats; set-up: method as in PMID 8773425; conditions: oral, before implantation on day 2 of pregnancy; cited from earlier work
[2] = tested on: female CD-1 mice; assay: Exposure experiment through drinking water; assay type: in vivo; conditions: 10-day exposure via drinking water
Protocol: Mice with a maximal difference in body weight of 1 g were selected for the experiments and randomly assigned to either the treatment or control groups. […] The animals were fed ad libitum an oestrogen-free diet from Trophic Animal Feed High-tech Co., Ltd. (Nantong, China), and drinking water was provided ad libitum in glass bottles. Before the experiments, the mice were randomly assigned to five groups (n=8). Ultra-pure water was used as a control. FULV was dissolved in ultra-pure water to a concentration of 100 ng l^−1 and used as a positive control. […] Two plastic drinking bottles labelled ‘BPA-free', of different brands, were purchased and denoted Bottle A and Bottle B. The plastic bottles were filled with boiling ultra-pure water from a stainless steel electric water heater and allowed to cool down to room temperature before the animal experiment. The BHPF levels in the cooled boiled waters from Bottle A, Bottle B and the stainless steel electric water heater were determined by GC–MS. No BHPF was detected in the cooled boiled water from the stainless steel electric water heater. The cooled boiled waters from Bottle A and Bottle B were transferred to glass bottles during the experiment. The exposure experiment was performed for 10 days beginning on PND 24. After the period of exposure, the mice were weighed and killed in turns for each group, whereby in each turn only one mouse in a group was killed. Blood was collected by cardiac puncture soon after each animal was killed, and the uteri were removed, blotted and weighed by one experimenter to reduce the risk of bias in the data collection and immediately frozen in liquid nitrogen for gene expression analysis. The relative uterine weight was calculated to evaluate the anti-uterotrophic activity. […] The serum BHPF levels were analysed by GC–MS using the same method as that for human serum. The gene expressions of sprr2a and sprr2b in the uteri were determined by Q-RT-PCR.

[3] = tested on: female CD-1 mice; assay: Improved anti-uterotrophic assay, daily oral gavage for 10 days beginning on PND 24; assay type: in vivo; conditions: daily oral gavage for 10 days
Protocol: The animals were fed ad libitum with a basic diet from the Laboratory Animal Center of the Academy of Military Medical Sciences (Beijing, China), and drinking water was provided ad libitum. […] The volume of vehicle or chemical solutions administered was adjusted daily based on body weight measured during the dosing period according to the volume-body weight ratio of 5 ml kg^−1 bw.

[4] = tested on: rats and mice; set-up: method as in PMID 21438738, PMID 12075117, PMID 18445619; conditions: cited from earlier work
[5] = tested on: oestrogen receptor α; set-up: method as in PMID 22927406; conditions: in the presence of E2; cited from earlier work
[6] = tested on: CD-1 mice; assay: Subchronic and reproductive toxicity tests; conditions: mouse, in vivo
Protocol: Immature CD-1 mice (20 days old) were obtained from Experimental Animal Tech Co. of Weitonglihua (Beijing, China) and acclimatized in an experimental environment with a temperature of 22 °C±2 °C, relative humidity between 40 and 60%, and artificial lighting in a 12 h/12 h light-dark cycle. The animals were fed ad libitum with a basic diet from the Laboratory Animal Center of the Academy of Military Medical Sciences (Beijing, China), and drinking water was provided ad libitum. […] The animals were housed five to a cage until the pairing date. The treatment via oral gavage of each mouse was performed once every 3 days beginning on PND 24. The chemicals were dissolved in peanut oil to the appropriate concentrations. The volume of vehicle or chemical solutions administered was adjusted daily based on body weight measured during the dosing period according to the volume-body weight ratio of 5 ml kg^−1 bw. On PND 60, 10 females of each group were weighed and killed by cervical dislocation. The uteri, ovaries, livers, kidneys and spleens were weighed and collected for histological analysis. At the age of PND 77, males and females were paired. Each morning, the females were examined for the presence of vaginal plugs. Gestational day 1 was defined as the day on which a vaginal plug was found. In cases where pairing was unsuccessful, females were re-mated with proven males of the same group, except that females in the 1.2 mg kg^−1 TAM group were re-mated with proven males of the control group. After a 7-day mating period, the males were weighed and killed, and organs were weighed and collected for further analysis. Cauda epididymal sperm was collected from each mouse and observed under a trinocular microscope (Olympus BX53) in physiological saline. A microscopic video was recorded and analysed for sperm quality evaluation. The treatment via oral gavage was continued for the females until day 19 of pregnancy. On post-partum days 0 and 4, the weights of the dams and pups were recorded and the pups were checked for abnormalities. On post-partum day 4, the dams were weighed and killed, and their organs were weighed and collected for further analysis. The ovaries and uteri were examined for the numbers of corpora lutea and implantation sites, respectively. Finally, the non-pregnant and nulliparous females were killed for histopathological analysis. For histological examination, organs and tissues were fixed in formalin fixation, embedded in paraffin, and sectioned serially at 5 μm. Slides were stained with hematoxylin and eosin (H&E), and observed under a light microscope (Olympus BX53).

[7] = tested on: intact female BALB/c mice; set-up: method as in PMID 9359486; conditions: 28 days of oral administration, intact female BALB/c mice ∼50 days old; cited from earlier work

Structure (SMILES): CN(C)CCOc1ccc([C@H]2C[C@]3(C)[C@@H](O)CC[C@H]3[C@@H]3CCc4cc(O)ccc4[C@H]32)cc1 [RU39411]
- reproductive effects, high doses [1]: prevented pregnancy in all animals
- reproductive effects, low doses [1]: reduced the litter sizes and weights and induced embryonic absorption in some animals

Structure (SMILES): C[C@]12CC[C@@H]3c4ccc(O)cc4C[C@@H](CCCCCCCCC[S+]([O-])CCCC(F)(F)C(F)(F)F)[C@H]3[C@@H]1CC[C@@H]2O (stereo partly shown) [FULV, fulvestrant]
- relative uterine weight, % that of the control ([2]; 100 ng l^−1 BHPF or FULV, Bottle A 124.35, Bottle B 23.81 ng l^−1 BHPF, P>0.05): 77.89%±37.50
- expression of sprr2a in the uteri (Q-RT-PCR) ([2]; no statistically significant difference (P>0.05)): decreased
- expression of sprr2b in the uteri (Q-RT-PCR) ([2]; vs control): significantly lower
- relative uterine weights [3]: decreased in a dose-dependent manner

Structure (SMILES): CC(C)(c1ccc(O)cc1)c1ccc(O)cc1 [BPA, bisphenol A]
- reproductive/developmental NOAEL [4]: 50 mg kg^−1 bw day^−1
- systemic no-observed-adverse-effect level (NOAEL) [4]: 5 mg kg^−1 bw day^−1

Structure (SMILES): Cc1cc(C(C)(C)c2ccc(O)c(C)c2)ccc1O [BPC, bisphenol C]
- antagonistic activity [5]: almost full antagonistic activity

Structure (SMILES): CC/C(=C(\c1ccccc1)c1ccc(OCCN(C)C)cc1)c1ccccc1 [TAM, tamoxifen, reference compound]
- reproductive effects, high doses [1]: prevented pregnancy in all animals
- reproductive effects, low doses [1]: reduced the litter sizes and weights and induced embryonic absorption in some animals
- analysis of ovary sections [6]: retarded follicular development and reduced the numbers of corpora lutea
- histopathological examination of ovaries [6]: haemorrhagic ovary cysts occurred
- histopathological examination of uteri [6]: serious atrophic endometria
- sperm quality [6]: No obvious adverse effects

Structure (SMILES): CC1=C(c2ccc(OC(=O)C(C)(C)C)cc2)[C@H](c2ccc(OCCN3CCCCC3)cc2)Oc2cc(OC(=O)C(C)(C)C)ccc21 [EM-800]
- effect on uterus [7]: reduce uterine weights and cause atrophy of the endometrium
